SMILES strings stand for the structures. Where “and” joins values, the source holds several entries; their conditions need not be identical. Equal entries are not always repeated. Where two headings read alike, the source gives them in different places.

These results are taken from patent publication US5340818A, “Methods and compositions for inhibiting tumor cell growth” (priority 1993, dated 1994).

Common to all, as to type: cell-based, human
Assay [1] deals with DNA synthesis in HL-60 cells. Nature of the assay: Inhibition of [3H-methyl]dThd incorporation into DNA of HL-60 cells. The note with it: for inhibition at 30 µg/mL: Homo sapiens, HL-60, at 0.03 mg/mL, read-out: % Inhibition of Precursor Incorporation, DNA; for inhibition of DNA synthesis, in words: HL-60, 0.03 mg/ml. As to the method:
(§1) For the precursor incorporation studies, each compound (in 0.3% dimethylsulfoxide) was preincubated with HL-60 cells (a human promyelocytic leukemic cell line) 2.2×10^6 /ml, for 15 min prior to the addition of the labeled precursor (obtained from ICN Radiochemicals, Irvine, Calif.) and then incubated for 30 min. The precursors used for incorporation into DNA, RNA and protein were [^3 H-methyl]dThd (1 μCi, 0.15 nmole/ml), [5-^3 H]Cyd (5 μCi, 0.23 nmol/ml), and [2,3,4,5-^3 H]L-Leu (0.5 μCi, 0.004 nmol/ml), respectively. Incorporation of radioactivity in the absence of a plant compound and in the presence of dimethylsulfoxide was used as a control.
Human promyelocytic cells (HL-60) were incubated with [^3 H-methyl]dTHDin the presence and absence of a plant alkaloid.

In assay [2] the test system is protein synthesis in HL-60 cells. The assay is described as follows: Inhibition of [2,3,4,5-3H]L-Leu incorporation into protein of HL-60 cells. The note with it: for inhibition at 30 µg/mL: Homo sapiens. As to the method:
as §1, with “control. The control values for incorporation into DNA, RNA and protein were 8,500, 5,600 and 1,700 cpm/10^6 cells, respectively. The incubation conditions and the procedures for isolating DNA, RNA and protein fractions have been previously described (Chou, T. -C., et al., Cancer Res., 43:3074-3079 (1983)) .” for “control.”
(§2) HL-60 cells were incubated with [5-^3 H]Cyd or [2,3,4,5-^3 H]L-Leu in the presence and absence of alkaloids (0.03 mg/ml) in order to find the effects of the alkaloid on the incorporation of labeled precursors into RNA or protein. […] Over 90% of RNA and protein biosynthesis were inhibited by compounds 11, 16, 17, 22, 28, 29and 30 (Table 1). […] In most cases, the amount required to inhibit precursor incorporation into DNA was less than that to inhibit precursor incorporation into RNA or protein (i.e. DNA synthesis is inhibited most potently).

Assay [3] deals with RNA synthesis in HL-60 cells. The assay is described as follows: Inhibition of [5-3H]Cyd incorporation into RNA of HL-60 cells. The note with it: for inhibition at 30 µg/mL: Homo sapiens, HL-60, 0.5 h. As to the method: as §1, with “control. The control values for incorporation into DNA, RNA and protein were 8,500, 5,600 and 1,700 cpm/10^6 cells, respectively. The incubation conditions and the procedures for isolating DNA, RNA and protein fractions have been previously described (Chou, T. -C., et al., Cancer Res., 43:3074-3079 (1983)) .” for “control.”
as §2

In a further assay the test system is HL-60 cells. The assay is described as follows: HL-60 cell growth inhibition, 72 h. The following applies: HL-60, 72 h; for IC50: read-out: Cell Growth Inhibition, IC50. How it is done:
For growth inhibition studies, HL-60 cells (1.5×10^5 /ml) were grown in RPMI 1640 media (GIBCO, Grand Island, N.Y.) at 37° C. in humidified 5% CO2 for 72 h. Viable cells were determined using trypan blue exclusion and counted in a hemocytometer. The fractional inhibition for each compound concentration (0.0025-0.05 mg/ml in 0.1% dimethylsulfoxide) was analyzed with the median-effect plot using a computer program (Chou, T. -C and P. Talalay, Adv. Enzyme Regul., 22:27-55 (1984); Chou, J. and T. -C. thou, Dose-Effect analysis with microcomputers: Quantitation of ED50, LD50, synergism, antagonism, low-dose risk, receptor ligand binding and enzyme kinetics. A computer software disk for Apple II series or IBM-PC and manual. Elsevier Science Publishers, Elsevier-BioSoft, Cambridge, United Kingdom (1986)). The median-effect concentration (IC50) was determined automatically for three to five dose-effect levels. Cell growth in the absence of plant compound and in the presence of dimethylsulfoxide was used as a control. Dimethylsulfoxide alone inhibited cell growth 3.9%±1.5% during the 72 h incubation period. Those data with negative values represent activations.

[4] abbreviates: HL-60, read-out: % Inhibition of Precursor Incorporation, Protein, at 0.03 mg/mL.
[5] abbreviates: read-out: % Inhibition of Precursor Incorporation, RNA, at 0.03 mg/mL.
Setting [6] is: HL-60, at 0.03 mg/mL, read-out: % Inhibition of Precursor Incorporation, Protein.
[7] abbreviates: at 0.03 mg/mL, read-out: % Inhibition of Precursor Incorporation, RNA.

In general, IC50 refers to the midpoint of a concentration-inhibition curve. In the case of `CC(C)=CCc1c(O)c(CC=C(C)C)c2c(c1O)c(=O)c1cccc(O)c1n2C` [Compound 26, N-methyl-atalaphylline], the inhibition at 30 µg/mL in assay [1] came to 99.6%; in assay [2] (setting [4]), 44.3%; in assay [3] (setting [5]), 28.2%. The “cell growth inhibition, in words” value in the assay with HL-60 cells was “significant activity against leukemic cells in vitro”. Besides, the IC50 in the assay with HL-60 cells (Homo sapiens) was 5.4 µg/mL and 13.7 µM.
With `COc1c(O)ccc2c(=O)c3c(O)cc(O)c(CC=C(C)C)c3n(C)c12` [Compound 27, Prenylcitpressine], the results for the inhibition at 30 µg/mL in assay [1], in assay [2] (setting [6]) and in assay [3] (setting [7]) were 52.4%, -15.7% and 21.1%, respectively. Besides, the IC50 with HL-60 cells (Homo sapiens) is 36 µg/mL and 94.5 µM.
As for `COc1c(OC(C)=O)ccc2c(=O)c3c(O)cc(OC(C)=O)c(CC=C(C)C)c3n(C)c12` [Compound 28, 3,6-O,O-Diacetyl-prenylcitpressine], the inhibition at 30 µg/mL in assay [1] worked out at 96.8%; in assay [2] (setting [6]), 89.6%; in assay [3] (setting [7]), 96.1%. In addition, the “cell growth inhibition, in words” value in the assay on HL-60 cells is “significant activity against leukemic cells in vitro”. In addition, in the assay with HL-60 cells (Homo sapiens), the IC50 was 2.2 µg/mL and 5 µM.
Consider `COc1cc(O)c2c(=O)c3ccc(O)c(OC)c3n(C)c2c1CC=C(C)C` [Compound 29, Grandisinine], for which the inhibition at 30 µg/mL in assay [1] is 98.5%; in assay [2] (setting [6]) it was 94.6%; in assay [3] (setting [7]) it was 96.5%. Besides, the “cell growth inhibition, in words” value in the assay on HL-60 cells is “significant activity against leukemic cells in vitro”. In the assay on HL-60 cells (Homo sapiens), the IC50 was 6 µg/mL and 16.9 µM.
With `COc1ccc2c(=O)c3c(O)cc(OC)c(CC=C(C)C)c3n(C)c2c1OC` [Compound 30, Balyumine-B], the inhibition at 30 µg/mL in assay [1] was 86.9%; in assay [2] (setting [6]), 87%; in assay [3] (setting [7]), 92.5%. Further, the IC50 with HL-60 cells (Homo sapiens) was 1.7 µg/mL and 4.4 µM.
As to `CC1(C)C=Cc2c(cc(O)c3c(=O)c4ccccc4[nH]c23)O1` [Compound 32, des-N-methyl-nor-acronycine], in assay [1], the “inhibition of DNA synthesis, in words” value was “did not show good activity”. Moreover, the inhibition at 30 µg/mL in assay [1] worked out at 69.2%; in assay [2] (setting [6]), 85.9%; in assay [3] (setting [7]) it was 77.5%. The “cell growth inhibition, in words” value in the assay on HL-60 cells is “only showed moderate cell growth inhibitory activity”. Besides, the IC50 with HL-60 cells (Homo sapiens) is 9.1 µg/mL and 31 µM.
Consider `COc1cc2c(c3[nH]c4ccccc4c(=O)c13)C=CC(C)(C)O2` [Compound 33, des-N-methyl acronycine], for which the “inhibition of DNA synthesis, in words” value in assay [1] is “markedly increased”. Further, the results for the inhibition at 30 µg/mL in assay [1], in assay [2] (setting [6]) and in assay [3] (setting [7]) were 93.8%, 86.4% and 67.3%, respectively. Also, the “cell growth inhibition, in words” value in the assay with HL-60 cells is listed as “significantly active”. For the same compound, the IC50 in the assay with HL-60 cells (Homo sapiens) is 5.4 µg/mL and 17.6 µM.
In the case of `Cn1c2ccccc2c(=O)c2c(O)cc3c(c21)C=CC(C)(C)O3` [Compound 35, Noracronycine], the inhibition at 30 µg/mL stood at 25.5% in assay [1], 4.7% in assay [2] (setting [6]) and 94% in assay [3] (setting [7]). Further, the “cell growth inhibition, in words” value in the assay with HL-60 cells is “only showed moderate cell growth inhibitory activity”. Further, the IC50 in the assay on HL-60 cells (Homo sapiens) was > 40 µg/mL and > 130 µM.
For `Cn1c2c(O)cccc2c(=O)c2c(O)cc3c(c21)CCC(C)(C)O3` [Compound 38, 1,2-Dihydro-11-hydroxy-nor acronycine], in assay [1], the “inhibition of DNA synthesis, in words” value was “same potency as their parent compounds”. The inhibition at 30 µg/mL in assay [1] was found to be 98.8%; in assay [2] (setting [6]), 92.2%; in assay [3] (setting [7]), 76.6%. In addition, in the assay with HL-60 cells, the “cell growth inhibition, in words” value is given as “only half as potent as their parent compounds”. The IC50 with HL-60 cells (Homo sapiens) was 5.5 µg/mL and 16.9 µM.
For `COc1cccc2c(=O)c3c(O)cc4c(c3n(C)c12)C=CC(C)(C)O4` [Compound 39, 11-methoxy-noracronycine], the “% Inhibition of Precursor Incorporation, DNA” value in assay [1] (at 0.03 mg/mL) is reported as 98.9%. Further, in assay [2] (at 0.03 mg/mL), the “% Inhibition of Precursor Incorporation, Protein” value is recorded as 36.2%. The “% Inhibition of Precursor Incorporation, RNA” value in assay [3] (at 0.03 mg/mL) amounted to 39.9%. For the same compound, in the assay with HL-60 cells, the “Cell Growth Inhibition, IC50” value stood at 5.8 µg/mL and the IC50 is 17.2 µM.
In the case of `CC(C)=CCc1c2c(c3[nH]c4c(O)cccc4c(=O)c3c1O)C=CC(C)(C)O2` [Compound 40, Atalaphyllinine], in assay [1], the “inhibition of DNA synthesis, in words” value was “greater activity”. In addition, the inhibition at 30 µg/mL in assay [1] came out at 98.8%; in assay [2] (setting [4]), 41.8%; in assay [3] (setting [5]) it was 24.4%. Besides, the “cell growth inhibition, in words” value in the assay on HL-60 cells was “comparable activity”. For the same compound, the IC50 with HL-60 cells (Homo sapiens) is 1.2 µg/mL and 3.2 µM.
Take `CC(C)=CCc1c2c(c3c(c1O)c(=O)c1ccccc1n3C)C=CC(C)(C)O2` [Compound 41, N-Methylseverifoline]: the “inhibition of DNA synthesis, in words” value in assay [1] is “no effect on the inhibitory activity”. Also, the inhibition at 30 µg/mL in assay [1] is 21.3%; in assay [2] (setting [6]), 13.2%; in assay [3] (setting [7]), -17.9%. In the assay with HL-60 cells, the “cell growth inhibition, in words” value was “only showed moderate cell growth inhibitory activity”. Moreover, the IC50 in the assay on HL-60 cells (Homo sapiens) was > 40 µg/mL and > 107 µM.
For `COc1c(O)ccc2c(=O)c3c(O)cc4c(c3n(C)c12)C=CC(C)(C)O4` [Compound 42, Citracridone-I], the figures for the inhibition at 30 µg/mL in assay [1], in assay [2] (setting [6]) and in assay [3] (setting [7]) were 98.5%, 90.5% and 96.9%, respectively. The IC50 in the assay on HL-60 cells (Homo sapiens) was 2.9 µg/mL and 8.2 µM.
Regarding `COc1c(O)ccc2c(=O)c3c(O)cc4c(c3n(C)c12)CCC(C)(C)O4` [Compound 43, 1,2-dihydrocitracridone-I], the “inhibition of DNA synthesis, in words” value in assay [1] is on record as “same potency as their parent compounds”. Also, the inhibition at 30 µg/mL in assay [1] turned out to be 94.9%; in assay [2] (setting [6]) it was 81.9%; in assay [3] (setting [7]), 68%. Also, the “cell growth inhibition, in words” value with HL-60 cells was “only half as potent as their parent compounds”. In addition, the IC50 in the assay on HL-60 cells (Homo sapiens) is 6.4 µg/mL and 18 µM.
As for `COc1ccc2c(=O)c3c(O)cc4c(c3n(C)c2c1OC)C=CC(C)(C)O4` [Compound 44, Citracridone-II], the inhibition at 30 µg/mL was 77.6% in assay [1], 62.7% in assay [2] (setting [6]) and 96.4% in assay [3] (setting [7]). The IC50 in the assay with HL-60 cells (Homo sapiens) is > 40 µg/mL and > 109 µM.
As for `COc1ccc2c(=O)c3c(OC)cc4c(c3n(C)c2c1OC)C=CC(C)(C)O4` [Compound 45, 6-O-Methylcitracridone-II], the inhibition at 30 µg/mL in assay [1] turned out to be 98.7%; in assay [2] (setting [6]) it was 49.8%; in assay [3] (setting [7]) it was 37.8%. Further, in the assay with HL-60 cells, the “cell growth inhibition, in words” value is “significantly active”. The IC50 in the assay with HL-60 cells (Homo sapiens) is 5.9 µg/mL and 15.5 µM.
Regarding `CC(C)=CCc1c2c(c3c(c1O)c(=O)c1cccc(O)c1n3C)C=CC(C)(C)O2` [Compound 46, 11-Hydroxy-N-methyl severifoline], the “inhibition of DNA synthesis, in words” value in assay [1] was “significant activity”. Moreover, the inhibition at 30 µg/mL in assay [1] was found to be 97.9%; in assay [2] (setting [4]), 4.22%; in assay [3] (setting [5]), 16.7%. For the same compound, in the assay with HL-60 cells (Homo sapiens), the IC50 is 5.9 µg/mL and 15.1 µM.
